Here are results for 14 compounds from patent US20260297094A1, “Tetracyclic Compounds as SMARCA2 and/or SMARCA4 Degraders” (Aurigene Oncology Limited, priority 2023, published 2026).

Where a name gives a salt, the structure may show the parent alone.

Common to all, as to assay type: cell-based
Experiment [1] concerns MV-4-11 cells. The experiment in a line: Anti proliferative activity in MV-4-11 cells by Cell Titer Glo (Promega) assay. The following applies: Homo sapiens, MV4-11, 72 h, 3 days, CellTiter-Glo. On the procedure:
Example-P2: Determination of Anti Proliferative Activity of Compounds in Cell Lines MV-4-11 by Cell Titer Glo® (Promega) Assay
MV-4-11 (CRL-9591™) cells were seeded in 96 well plate flat black clear bottom plates (Corning, Cat. No 3904) using complete DMEM Medium. Next day, selected compounds of the present invention were added to cells from 10 mM stocks made in DMSO (Sigma Cat no. D2650). Each concentration of compound was tested in triplicate with DMSO concentration at a final percentage not exceeding 0.3 in the cells. After the incubation of MV-4-11 cells with compound for 3 days; assay was terminated using 100 μl of CellTiter Glo® reagent (Promega, Cat. no G7572). CellTiter-Glo® Luminescent reagent determines the number of viable cells based on quantitation of ATP present which is an indicator of cell number and metabolic activity. Luminescence readings were taken in Victor-5 instrument. Percent inhibition of proliferation was calculated using formula, % inhibition=100−(luminescence value of test/luminescence value of DMSO control)*100. DMSO control (0%)=Cells in complete media with DMSO; blank=Media alone containing DMSO. EC50 was calculated using graph pad prism software.
In general terms: In ATP-based viability assays light output follows the ATP content of the culture.

Experiment [2] has as its system SK-MEL-5 cells. The experiment in a line: Anti proliferative activity in SK-MEL-5 cells by Cell Titer Glo (Promega) assay. The following applies: Homo sapiens, retreatment on Day 4, terminated on day 8, CellTiter-Glo. On the procedure: Example-P1: Determination of Anti Proliferative Activity of Compounds in Cell Lines SK-MEL-5 by Cell Titer Glo® (Promega) Assay
Cells were seeded into 96-well plates and the plate was incubated in 37 degrees incubator overnight. The next day, compounds were diluted 3-fold to cover 9-point concentration range in DMSO. Intermediate plate dilution was prepared in media followed with compound treatment in cells. Retreatment of cells with compound dilutions was performed on Day 4 and assay was terminated on day 8 for SK-MEL-5 cells using CellTiter-Glo and the plate was kept on orbital shaker for 20 minutes at RT. Assay was terminated on day 6 for RERF-LC-A1 without a compound retreatment. Luminescence signal was recorded on VICTOR^3 instrument. Percent inhibition of proliferation was calculated at each concentration and plotted against the compound concentration. EC50 value was calculated using GraphPad® software.

Experiment [3] concerns the target T1, SMARCA2 (Homo sapiens, UniProt P51531).
T1 construct: endogenous in cells; host or cells: MV-4-11 (CRL-9591)
The experiment in a line: SMARCA2 degradation in MV-4-11 cells by Western blot. Conditions: MV4-11, 16 h, at 100 nM, vs DMSO, read-out: Percent degradation SMARCA2. How it is done:
(§1) Example-P3: Determination of SMARCA2 and SMARCA4 Degradation in MV-4-11 Cells by Western Blot
(§2) MV-4-11 (CRL-9591™) cells were plated in 6 well plates using complete Iscove's Modified Dulbecco's Medium. On the third day, compounds of present invention were added to cells from 10 mM stocks made in DMSO (Sigma Cat no. D2650). Each concentration of compound was tested with DMSO not exceeding final percentage of 0.1 in the cells. Cells were incubated with the compound for 16 hours followed by harvesting with 1×RIPA lysis buffer (Thermo Fischer, catalogue number #89900) containing protease inhibitor cocktail (Sigma catalogue number #P-8340). Equal amount of protein was loaded on SDS PAGE gel for electrophoresis. Western blot was carried out for detection of either SMARCA2 (Cell signalling technologies, catalogue number #11966) or SMARCA4 antibody (Cell signalling technologies, catalogue number #52251). Beta-Tubulin antibody (Cell signalling technologies, catalogue number #86298) was used as loading control. Percentage of SMARCA2 or SMARCA4 degradation was calculated using formula % Degradation=100−(normalized band intensity in treated sample/normalized band intensity in DMSO sample)*100. Here, “ND” refers to Not determined.

The target of experiment [4] is T2, SMARCA4 (Homo sapiens, UniProt P51532).
T2 construct: endogenous in cells; host or cells: MV-4-11 (CRL-9591)
The experiment in a line: SMARCA4 degradation in MV-4-11 cells by Western blot. Conditions: MV4-11, at 100 nM, 16 hours, vs DMSO, read-out: Percent degradation SMARCA4. On the procedure: as §1, §2
A general note: A western blot detects proteins with antibodies after separation by electrophoresis.

T2 sequence (P51532 whole entry): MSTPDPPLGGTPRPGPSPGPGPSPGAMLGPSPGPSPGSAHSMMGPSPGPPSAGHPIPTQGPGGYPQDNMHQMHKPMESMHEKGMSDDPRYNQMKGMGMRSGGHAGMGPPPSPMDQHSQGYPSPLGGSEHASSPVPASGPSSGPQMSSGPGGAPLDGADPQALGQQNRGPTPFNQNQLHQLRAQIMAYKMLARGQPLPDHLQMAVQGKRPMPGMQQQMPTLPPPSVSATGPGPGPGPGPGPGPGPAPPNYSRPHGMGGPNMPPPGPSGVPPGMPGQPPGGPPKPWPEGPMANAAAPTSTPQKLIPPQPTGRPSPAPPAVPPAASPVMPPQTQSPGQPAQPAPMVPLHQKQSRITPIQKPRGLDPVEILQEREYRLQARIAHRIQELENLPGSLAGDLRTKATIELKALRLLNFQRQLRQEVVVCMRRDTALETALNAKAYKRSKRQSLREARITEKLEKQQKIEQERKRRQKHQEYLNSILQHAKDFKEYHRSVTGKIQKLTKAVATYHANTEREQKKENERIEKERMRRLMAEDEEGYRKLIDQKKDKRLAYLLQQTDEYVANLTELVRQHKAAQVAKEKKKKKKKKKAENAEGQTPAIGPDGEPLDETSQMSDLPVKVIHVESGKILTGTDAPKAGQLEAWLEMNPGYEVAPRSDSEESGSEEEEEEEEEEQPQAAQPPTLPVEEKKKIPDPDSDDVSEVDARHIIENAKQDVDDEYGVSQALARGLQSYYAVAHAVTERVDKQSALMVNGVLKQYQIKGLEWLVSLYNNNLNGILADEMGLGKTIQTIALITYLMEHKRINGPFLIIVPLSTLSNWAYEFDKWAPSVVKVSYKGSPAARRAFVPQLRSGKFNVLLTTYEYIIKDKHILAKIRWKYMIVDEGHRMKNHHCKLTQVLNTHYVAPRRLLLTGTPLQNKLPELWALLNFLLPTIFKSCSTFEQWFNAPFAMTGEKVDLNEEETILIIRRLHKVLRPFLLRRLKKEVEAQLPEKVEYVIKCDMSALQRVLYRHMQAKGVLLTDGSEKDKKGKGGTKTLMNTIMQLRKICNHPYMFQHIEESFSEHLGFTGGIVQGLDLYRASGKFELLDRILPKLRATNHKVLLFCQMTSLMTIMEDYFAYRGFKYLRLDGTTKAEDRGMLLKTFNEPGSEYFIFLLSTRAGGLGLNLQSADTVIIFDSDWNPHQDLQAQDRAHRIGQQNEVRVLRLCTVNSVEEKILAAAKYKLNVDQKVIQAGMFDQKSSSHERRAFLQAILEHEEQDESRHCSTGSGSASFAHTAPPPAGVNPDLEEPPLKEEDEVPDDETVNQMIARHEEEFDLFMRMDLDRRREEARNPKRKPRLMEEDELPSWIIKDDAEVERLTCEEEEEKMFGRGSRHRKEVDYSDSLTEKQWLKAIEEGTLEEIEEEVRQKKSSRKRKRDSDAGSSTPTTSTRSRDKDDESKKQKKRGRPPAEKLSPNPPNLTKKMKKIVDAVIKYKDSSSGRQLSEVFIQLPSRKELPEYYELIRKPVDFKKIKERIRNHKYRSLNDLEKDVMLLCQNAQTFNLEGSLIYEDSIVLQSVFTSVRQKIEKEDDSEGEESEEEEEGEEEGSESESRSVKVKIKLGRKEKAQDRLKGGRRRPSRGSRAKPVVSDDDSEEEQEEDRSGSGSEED
T1 sequence (P51531 whole entry): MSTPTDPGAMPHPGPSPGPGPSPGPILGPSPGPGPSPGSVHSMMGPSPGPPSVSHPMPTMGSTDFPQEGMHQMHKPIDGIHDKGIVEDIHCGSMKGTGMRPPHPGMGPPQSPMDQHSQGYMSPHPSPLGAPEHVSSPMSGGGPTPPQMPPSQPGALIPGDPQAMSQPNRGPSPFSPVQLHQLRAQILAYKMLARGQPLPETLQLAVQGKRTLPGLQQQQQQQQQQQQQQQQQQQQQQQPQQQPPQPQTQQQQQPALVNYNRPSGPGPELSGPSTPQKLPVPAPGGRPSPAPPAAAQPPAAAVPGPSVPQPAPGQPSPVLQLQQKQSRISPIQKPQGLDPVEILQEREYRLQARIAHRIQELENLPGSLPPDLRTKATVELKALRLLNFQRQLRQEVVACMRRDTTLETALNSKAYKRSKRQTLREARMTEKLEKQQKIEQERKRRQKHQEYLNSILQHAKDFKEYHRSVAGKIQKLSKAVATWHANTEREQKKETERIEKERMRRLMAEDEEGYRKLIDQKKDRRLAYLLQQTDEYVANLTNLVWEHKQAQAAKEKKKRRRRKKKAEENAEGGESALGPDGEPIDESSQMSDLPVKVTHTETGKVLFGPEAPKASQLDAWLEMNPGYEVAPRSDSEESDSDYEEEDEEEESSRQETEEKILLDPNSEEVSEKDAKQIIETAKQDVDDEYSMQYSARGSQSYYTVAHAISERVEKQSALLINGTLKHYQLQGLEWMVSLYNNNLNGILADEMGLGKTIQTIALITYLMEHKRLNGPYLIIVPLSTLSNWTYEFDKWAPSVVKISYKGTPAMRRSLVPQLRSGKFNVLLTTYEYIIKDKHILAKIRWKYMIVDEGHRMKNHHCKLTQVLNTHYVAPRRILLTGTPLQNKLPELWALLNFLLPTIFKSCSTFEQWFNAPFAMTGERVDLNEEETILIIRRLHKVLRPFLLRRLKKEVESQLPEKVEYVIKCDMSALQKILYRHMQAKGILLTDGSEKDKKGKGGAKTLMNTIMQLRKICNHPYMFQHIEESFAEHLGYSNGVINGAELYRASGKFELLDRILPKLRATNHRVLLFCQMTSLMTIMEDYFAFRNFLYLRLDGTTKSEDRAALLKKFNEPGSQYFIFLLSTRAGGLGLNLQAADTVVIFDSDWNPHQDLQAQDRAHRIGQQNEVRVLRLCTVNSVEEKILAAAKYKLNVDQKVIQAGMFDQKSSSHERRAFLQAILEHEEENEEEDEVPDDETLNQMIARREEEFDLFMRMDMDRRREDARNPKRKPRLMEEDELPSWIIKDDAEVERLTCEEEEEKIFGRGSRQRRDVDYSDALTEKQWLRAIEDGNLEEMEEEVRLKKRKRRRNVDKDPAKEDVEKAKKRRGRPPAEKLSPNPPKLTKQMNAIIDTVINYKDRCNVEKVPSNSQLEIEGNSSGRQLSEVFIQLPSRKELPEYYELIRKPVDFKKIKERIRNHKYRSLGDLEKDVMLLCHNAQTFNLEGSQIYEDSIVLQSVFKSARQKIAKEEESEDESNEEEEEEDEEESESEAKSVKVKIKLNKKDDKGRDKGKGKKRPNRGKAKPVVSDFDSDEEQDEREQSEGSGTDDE

For the compound `Cn1c2cc(N3CCC(N4CCC(c5ccc6c(c5)CN(C5CCC(=O)NC5=O)C6=O)CC4)CC3)ccc2n2c3cccc(N)c3c(=O)nc12` (stereo not shown) [Compound 15, 3-(5-(1′-(4-amino-7-methyl-5-oxo-5,7-dihydrobenzo[4,5]imidazo[1,2-a]quinazolin-9-yl)-[1,4′-bipiperidin]-4-yl)-1-oxoisoindolin-2-yl)piperidine-2,6-dione-HCl salt], the half-maximal effective concentration (EC50) in experiment [1] and in experiment [2] was less than 10 nM each time. Also, the inhibition at 0.1 µM came out at 96% in experiment [3] and 95% in experiment [4].

On to `O=C1CCC(c2ccc(C3CCN(C4CCN(c5ccc6c(c5)n(C5CCCC5)c5nc(=O)c7c(Cl)cccc7n65)CC4)CC3)cc2)C(=O)N1` (stereo not shown) [Compound 22, 3-(4-(1′-(4-chloro-7-cyclopentyl-5-oxo-5,7-dihydrobenzo[4,5]imidazo[1,2-a]quinazolin-9-yl)-[1,4′-bipiperidin]-4-yl)phenyl)piperidine-2,6-dione-HCl salt], for which the EC50 in experiment [1] and in experiment [2] was less than 10 nM in each case. Also, the results for the inhibition at 0.1 µM in experiment [3] and in experiment [4] were 89% and 56%, respectively.

As for `O=C1CCC(Nc2ccc(C3CCN(C4CCN(c5ccc6c(c5)n(C5CCCC5)c5nc(=O)c7c(Cl)cccc7n65)CC4)CC3)c(F)c2)C(=O)N1` (stereo not shown) [Compound 23, 3-((4-(1′-(4-chloro-7-cyclopentyl-5-oxo-5,7-dihydrobenzo[4,5]imidazo[1,2-a]quinazolin-9-yl)-[1,4′-bipiperidin]-4-yl)-3-fluorophenyl)amino)piperidine-2,6-dione-HCl salt], the EC50 in experiment [1] and in experiment [2] was less than 10 nM in each case. In addition, the inhibition at 0.1 µM is 99% in experiment [3] and 98% in experiment [4].

As to `Cn1c2cc(N3CCC(N4CCN(c5ccc(C6CCC(=O)NC6=O)cc5)CC4)CC3)ccc2n2c3cccc(N)c3c(=O)nc12` (stereo not shown) [Compound 32, 3-(4-(4-(1-(4-amino-7-methyl-5-oxo-5,7-dihydrobenzo[4,5]imidazo[1,2-a]quinazolin-9-yl)piperidin-4-yl)piperazin-1-yl)phenyl)piperidine-2,6-dione-HCl salt], the EC50 in experiment [1] and in experiment [2] was more than 100 nM each time. The inhibition at 0.1 µM in experiment [3] came out at 59%; in experiment [4] it was 38%.

For `Nc1cccc2c1c(=O)nc1n(C3CCCC3)c3cc(N4CCC(N5CCC(c6ccc7c(c6)CN(C6CCC(=O)NC6=O)C7=O)CC5)CC4)ccc3n21` (stereo not shown) [Compound 8, 3-(5-(1′-(4-amino-7-cyclopentyl-5-oxo-5,7-dihydrobenzo[4,5]imidazo[1,2-a]quinazolin-9-yl)-[1,4′-bipiperidin]-4-yl)-1-oxoisoindolin-2-yl)piperidine-2,6-dione-HCl salt], the EC50 in experiment [1] and in experiment [2] was less than 10 nM throughout. Moreover, the inhibition at 0.1 µM amounted to 92% in experiment [3] and 99% in experiment [4].

Consider `O=C1CCC(Nc2ccc(C3CCN(C4CCN(c5ccc6c(c5)n(C5CCCC5)c5nc(=O)c7c(Br)cccc7n65)CC4)CC3)c(F)c2)C(=O)N1` (stereo not shown) [Compound 3, 3-((4-(1′-(4-bromo-7-cyclopentyl-5-oxo-5,7-dihydrobenzo[4,5]imidazo[1,2-a]quinazolin-9-yl)-[1,4′-bipiperidin]-4-yl)-3-fluorophenyl)amino)piperidine-2,6-dione], for which the EC50 in experiment [1] and in experiment [2] was less than 10 nM each time. In addition, the inhibition at 0.1 µM in experiment [3] was 100%; in experiment [4], 99%.

As for `Cn1c2cc(N3CCN(C4CN(c5ccc6c(c5)C(=O)N(C5CCC(=O)NC5=O)C6=O)C4)CC3)ccc2n2c3cccc(N)c3c(=O)nc12` (stereo not shown) [Compound 45, 5-(3-(4-(4-amino-7-methyl-5-oxo-5,7-dihydrobenzo[4,5]imidazo[1,2-a]quinazolin-9-yl)piperazin-1-yl)azetidin-1-yl)-2-(2,6-dioxopiperidin-3-yl)isoindoline-1,3-dione], the EC50 in experiment [1] and in experiment [2] was more than 100 nM each time. Moreover, the inhibition at 0.1 µM in experiment [3] was 21%.

As to `Cn1c2cc(N3CCC(N4CCN(c5ccc(NC6CCC(=O)NC6=O)cc5F)CC4)CC3)ccc2n2c3cccc(N)c3c(=O)nc12` (stereo not shown) [Compound 40, 3-((4-(4-(1-(4-amino-7-methyl-5-oxo-5,7-dihydrobenzo[4,5]imidazo[1,2-a]quinazolin-9-yl)piperidin-4-yl)piperazin-1-yl)-3-fluorophenyl)amino)piperidine-2,6-dione], the EC50 in experiment [1] and in experiment [2] was more than 100 nM in each case. For the same compound, the inhibition at 0.1 µM in experiment [3] worked out at 48%.

`CC(C)n1c2cc(N3CCC(N4CCN(c5ccc6c(c5)CN(C5CCC(=O)NC5=O)C6=O)CC4)CC3)ccc2n2c3cccc(Cl)c3c(=O)nc12` (stereo not shown) [Compound 48, 3-(5-(4-(1-(4-chloro-7-isopropyl-5-oxo-5,7-dihydrobenzo[4,5]imidazo[1,2-a]quinazolin-9-yl)piperidin-4-yl)piperazin-1-yl)-1-oxoisoindolin-2-yl)piperidine-2,6-dione]: the EC50 (in general, the concentration giving half of the maximal effect) in experiment [1] was more than 100 nM; in experiment [2] it was less than 10 nM.

With `O=C1CCC(N2Cc3cc(C4CCN(C5CCN(c6ccc7c(c6)n(C6CCCC6)c6nc(=O)c8cnccc8n76)CC5)CC4)ccc3C2=O)C(=O)N1` (stereo not shown) [Compound 19, 3-(5-(1′-(7-cyclopentyl-5-oxo-5,7-dihydrobenzo[4,5]imidazo[1,2-a]pyrido[3,4-e]pyrimidin-9-yl)-[1,4′-bipiperidin]-4-yl)-1-oxoisoindolin-2-yl)piperidine-2,6-dione], the 50% effective concentration (EC50) in experiment [1] and in experiment [2] was more than 100 nM in each case.

For `CC(C)n1c2cc(N3CCC(N4CCN(c5ccc(C6CCC(=O)NC6=O)cc5)CC4)CC3)ccc2n2c3cccc(N)c3c(=O)nc12` (stereo not shown) [Compound 44, 3-(4-(4-(1-(4-amino-7-isopropyl-5-oxo-5,7-dihydrobenzo[4,5]imidazo[1,2-a]quinazolin-9-yl)piperidin-4-yl)piperazin-1-yl)phenyl)piperidine-2,6-dione], the EC50 in experiment [1] and in experiment [2] was more than 100 nM throughout. In experiment [3], the inhibition at 0.1 µM was 16%.

As to `Cc1cccc2c1c(=O)nc1n(C3CCCC3)c3cc(N4CCC(N5CCC(c6ccc(NC7CCC(=O)NC7=O)cc6F)CC5)CC4)ccc3n21` (stereo not shown) [Compound 33, 3-((4-(1′-(7-cyclopentyl-4-methyl-5-oxo-5,7-dihydrobenzo[4,5]imidazo[1,2-a]quinazolin-9-yl)-[1,4′-bipiperidin]-4-yl)-3-fluorophenyl)amino)piperidine-2,6-dione], the concentration for a half-maximal effect (EC50) in experiment [1] and in experiment [2] was more than 100 nM throughout.

For the compound `O=C1CCC(N2C(=O)c3ccc(N4CCN(c5ccc6c(c5)n(C5CCCC5)c5nc(=O)c7c(Br)cccc7n65)CC4)cc3C2=O)C(=O)N1` (stereo not shown) [Compound 5, 5-(4-(4-bromo-7-cyclopentyl-5-oxo-5,7-dihydrobenzo[4,5]imidazo[1,2-a]quinazolin-9-yl)piperazin-1-yl)-2-(2,6-dioxopiperidin-3-yl)isoindoline-1,3-dione], the concentration giving a half-maximal response (EC50) in experiment [1] and in experiment [2] was more than 100 nM throughout.

For `O=C1CCC(NC(=O)c2ccc(C3CCN(C4CCN(c5ccc6c(c5)n(C5CCCC5)c5nc(=O)c7c(Cl)cccc7n65)CC4)CC3)cc2F)C(=O)N1` (stereo not shown) [Compound 39, 4-(1′-(4-chloro-7-cyclopentyl-5-oxo-5,7-dihydrobenzo[4,5]imidazo[1,2-a]quinazolin-9-yl)-[1,4′-bipiperidin]-4-yl)-N-(2,6-dioxopiperidin-3-yl)-2-fluorobenzamide], the EC50 in experiment [1] and in experiment [2] was more than 100 nM each time.
